Laboratory results from paper PMC6107127, “Characteristics of the mitochondrial and cellular uptake of MPP^+, as probed by the fluorescent mimic, 4'I-MPP^+” (PLoS ONE, 2018).

Experiments:
[1] = tested on: MN9D cells; assay: Intracellular ATP levels; type: cell-based, mouse; conditions: 100 μM, 6 h at 37 °C
Procedure: Cells grown in 12-well plates were treated with 100 μM MPP^+ or 4'I-MPP^+ in KRB-HEPES for 6 h at 37 °C. After the treatments, cells were suspended in 1 mL of ice-cold KRB-HEPES and 50 μL samples were withdrawn for protein quantification. The remaining cell suspensions were centrifuged for 3 min at 3,500 x g at 4 °C and the cell pellets were treated with 1 mL of lysis buffer (0.1 M Tris, 1% Triton X-100, pH 7.5) for 2 min and centrifuged at 3,500 x g for 3 min to remove the cell debris. The ATP contents of the supernatants were measured using a fluorometric ATP assay kit (BioVision, Milpitas CA, USA) following the manufacture’s guidelines. All ATP levels were normalized to the protein content of each sample.

[2] = tested on: rat brain mitochondrial complex-I (NADH: ubiquinone oxidoreductase); assay: Ubiquinone dependent NADH oxidation (complex-I inhibition); type: biochemical; conditions: 200 μM
Procedure: Isolated rat brain mitochondria were lysed by freeze-thawing in hypotonic media containing 25 mM K3PO4 and 5 mM MgCl2, pH 7.2 [22]. The complex-I (i.e. NADH: ubiquinone oxidoreductase) activity of mitochondrial membrane fragments were determined according to the procedure of Birch-Machin and Turnbull. Briefly, mitochondrial membranes (50 μg protein) were incubated with 130 μM NADH (final concentration) and Antimycine A (2 μg/mL) in a 1.0 mL assay solution containing 25 mM K3PO4, 5 mM MgCl2, 2 mM KCN, 2.5 mg/mL bovine serum albumin, pH 7.2, for 2 min at 37 °C with or without rotenone, MPP^+ or 4'I-MPP^+ (for further details see the corresponding figure legends). The complex-I mediated ubiquinone dependent NADH oxidation was initiated by adding ubiquinone-1 to a final concentration of 65 μM and the initial rates of the reactions were monitored by following the decrease in absorbance at 340 nm with respect to 425 nm reference wavelength for 5 min.

[3] = Solubility in incubation media; type: physicochemical; conditions: concentrations above 200 μM
[4] = tested on: HepG2 cells; assay: MTT cell viability assay; type: cell-based, human
Procedure: Cell viability was determined by the MTT [3-(4,5-dimethylthiazol-2-yl)-2,5-diphenyltetrazolium bromide)] assay. Briefly, cells were seeded on 96-well plates and allowed to grow to about 70–80% confluence. Prior to the experiment, culture media was replaced with KRB-HCO3^- containing desired concentrations of MPP^+ or 4'I-MPP^+ and incubated for 16 h at 37 °C. After the incubation, 10 μL of 5 mg/mL MTT solution was added to each well and incubated for 2 h at 37 °C. The resulting formazan was solubilized by the addition of 210 μL detergent solution [50% DMF/H2O (v/v), 20% SDS (w/v)] followed by incubation at 37 °C for 12 h. The cell viabilities were determined by quantifying solubilized formazan by measuring the difference in the absorbance at 570 nm and 650 nm. Results were expressed as % viability of MPP^+ or 4'I-MPP^+ treated cells with respect to control cells, which were treated under the same conditions except in the absence of the MPP^+ or 4'I-MPP^+.

[5] = tested on: MN9D or HepG2 cells; assay: Mitochondrial membrane potential depolarization (TMRM); type: cell-based; conditions: 100 μM
Procedure: MN9D or HepG2 cells grown in glass-bottomed plates were treated with 50 nM TMRM (AnaSpec, Fremont CA, USA) in KRB-HEPES for 45 min in the dark. After mounting on the stage of a Nikon ECLIPSE Ti-S inverted fluorescence microscope, 15–20 ROIs with uniform fluorescence were selected and TMRM fluorescence at Ex/Em at 543/573 nm was recorded at 5 sec time intervals for 3 min. Then, MPP^+ or 4'I-MPP^+ was added to a final concentration of 500 or 100 μM, respectively and TMRM fluorescence measurements were continued for an additional 40 min for MPP^+ and 15 min for 4'I-MPP^+ at 15 sec time intervals. The background fluorescence was subtracted from the ROI fluorescence and averages of corrected data were used to estimate the magnitude of the mitochondrial membrane potential.

C[n+]1ccc(-c2ccc(I)cc2)cc1 [4'I-MPP^+, 1-methyl-4-(4'-iodophenyl)pyridinium]
effect on intracellular ATP levels [1]: deplete intracellular ATP levels
inhibition of the complex-I activity [2]: 46%
solubility in the incubation media [3]: low solubility
HepG2 cell toxicity ([4]; MPP+ at 0–1000 μM, 4'I-MPP+ at 0–200 μM, 16 h): resistant
concentration above which toxic to HepG2 cells ([4]; rough estimates, data not shown): above 250 μM
time to depolarize the mitochondrial membrane by 20–50% [5]: 20 min
